# Where a SMILES comes first, the peptide text is derived from it. [ ]: non-standard residue; d: D form. The star is where a group is joined. Dolaproine = CO[C@@H]([C@@H]1CCCN1)[C@@H](C)C(=O)O; Dil = CC[C@H](C)[C@H](NC)[C@@H](CC(=O)O)OC; NH(2-(2-pyridyl)ethyl) = c1ccc(CCN*)nc1; NMeV = CN[C@H](C(=O)O)C(C)C
# Tested on: SW780 human bladder cancer cells
# Experiment: In vivo efficacy in subcutaneously established human bladder cancer cell line SW780 implanted in ICR SCID mice
# Settings: QW for 3 weeks, SW780 xenograft, male ICR SCID mice
# Protocol: Determination of In Vivo Efficacy of Test Compounds: Efficacy Evaluation in Subcutaneously Established Human Bladder Cancer Cell Line SW780 Implanted in ICR SCID Mice
# For animal in vivo studies, the test compounds were diluted with 20 mM Histidine, 5% Sucrose, pH 6 with 15% DMSO. Male ICR SCID mice (Taconic Farm, Hudson, N.Y.) were housed in standard rodent micro isolator cages. Environment controls for the animal rooms were set to maintain a temperature between 68-75° F., a relative humidity between 30% to 70%, and an approximate 12 h light/12 h dark cycle. Food and water was provided ad libitum. After 72 h of acclimatization, the mice were implanted with SW780 human bladder cancer cells (2×10^6 cells/mouse), suspended in 50% complete cultrex (Trevigen, Inc.) mixed with 1×PBS (Gibco), and the tumor growth rate was monitored. When the average tumor volume reached ˜200 mm^3, tumors were size-matched and mice were randomized to treatment groups (n=8 or 10). The tumor-bearing mice were treated i.v. with Vehicle or test compound at 2 or 4 mg/kg (mpk) on a QW dosing schedule for 3 weeks. Tumor volume was assessed twice weekly using caliper measurement.
smiles,measurement,setting,value
"CC[C@H](C)[C@@H]([C@@H](CC(=O)N1CCC[C@H]1[C@H](OC)[C@@H](C)C(=O)NCCc1ccccn1)OC)N(C)C(=O)[C@@H](NC(=O)[C@@H](NC)C(C)C)C(C)C [Example 1, (S)—N-((3R,4S,5S)-3-Methoxy-1-((S)-2-((1R,2R)-1-methoxy-2-methyl-3-oxo-3-((2-(pyridin-2-yl)ethyl)amino)propyl)pyrrolidin-1-yl)-5-methyl-1-oxoheptan-4-yl)-N,3-dimethyl-2-((S)-3-methyl-2-(methylamino)butanamido)butanamide] (H-[NMeV]V[Dil][Dolaproine]-{NH(2-(2-pyridyl)ethyl)})",effect on tumor growth (mean tumor volume versus days of treatment),2 mg/kg i.v.,tumor stasis
same,effect on tumor growth (mean tumor volume versus days of treatment),4 mg/kg i.v.,tumor stasis
"CC[C@H](C)[C@@H]([C@@H](CC(=O)N1CCC[C@H]1[C@H](OC)[C@@H](C)C(=O)NCCc1ccc(N)cc1)OC)N(C)C(=O)[C@@H](NC(=O)[C@H](C(C)C)N(C)C)C(C)C [Example 22, (S)—N-((3R,4S,5S)-1-((S)-2-((1R,2R)-3-((4-aminophenethyl)amino)-1-methoxy-2-methyl-3-oxopropyl)pyrrolidin-1-yl)-3-methoxy-5-methyl-1-oxoheptan-4-yl)-2-((S)-2-(dimethylamino)-3-methylbutanamido)-N,3-dimethylbutanamide]",effect on tumor growth (mean tumor volume versus days of treatment),2 mg/kg i.v.,tumor stasis
